The values below are quoted from earlier work in patent US20040224037A1, “Devastating treatment against hiv/aids with capsaicin” (priority 2003, published 2004).

Like-named read-outs stand apart in the source and are kept apart here.

The subject of data set [1] is proliferating macrophages from the blood of four patients with AIDS dementia.
For a further data set, the system named is nk cells. To be noted: deviation of more or less 11.5%.
A further data set deals with Sprague-Dawley cd rats. The note with it: pregnant rats, 0, 500 or 5000 mg/kg/day.
Another data set has as its system masT cells. The note with it: suspensions of mast cells in rats.
In the next data set the test system is macrophages. The note with it: in vitro.
Data set [2] deals with rats. The note with it: for blood pressure and heart rate after pretreatment: previous anesthesia, Capsaicin pretreatment 100 mg during four days.
Another data set has as its system tongue. To be noted: Nelson 1910.
The subject of another data set is substance p(sp). The note with it: pretreatment with Capsaicin in rats.
In data set [3] the test system is rats. The note with it: 18 mcg/kg injected, anesthesia, pretreatment 4,8,16 and 200 mg/kg each 12 hours.
In data set [4] the test system is intestinal glucose absorption. To be noted: 140 mcg/ml, rats in vitro.
Data set [5] concerns rats. To be noted: higher doses reduced acid output.
The test system of data set [6] is dogs. To be noted: 10 mcg/kg iv. in dogs.
The subject of data set [7] is enzyme (cyp2e1) of cytochrome p4502e1. The note with it: in the liver.
Data set [8] deals with [4-(methylnitrosamino)-1-(3-pyridyl)-1-butanone] nnk.
The conditions of data set [9]: Capsaicin administration at high concentration.
Another data set concerns b-endorphin. To be noted: rats; 3,5,7 and 15 days after Capsaicin administration.
The test system of data set [10] is dogs.
Another data set relates to herpes simplex. To be noted: sc. administration, rats infected with herpes simplex.
Data set [11] relates to histamine and 5-hydroxitryptamine. The note with it: treatment with Capsaicin in rats.
The test system of data set [12] is rats. To be noted: iv. treatment, also printed 0.5 mg/kg.
The subject of a further data set is cats and dogs. To be noted: 50 mcg/kg iv. in cats and dogs.

enzyme (cyp2e1) of cytochrome p4502e1, sequence (P05181 whole entry, species assumed): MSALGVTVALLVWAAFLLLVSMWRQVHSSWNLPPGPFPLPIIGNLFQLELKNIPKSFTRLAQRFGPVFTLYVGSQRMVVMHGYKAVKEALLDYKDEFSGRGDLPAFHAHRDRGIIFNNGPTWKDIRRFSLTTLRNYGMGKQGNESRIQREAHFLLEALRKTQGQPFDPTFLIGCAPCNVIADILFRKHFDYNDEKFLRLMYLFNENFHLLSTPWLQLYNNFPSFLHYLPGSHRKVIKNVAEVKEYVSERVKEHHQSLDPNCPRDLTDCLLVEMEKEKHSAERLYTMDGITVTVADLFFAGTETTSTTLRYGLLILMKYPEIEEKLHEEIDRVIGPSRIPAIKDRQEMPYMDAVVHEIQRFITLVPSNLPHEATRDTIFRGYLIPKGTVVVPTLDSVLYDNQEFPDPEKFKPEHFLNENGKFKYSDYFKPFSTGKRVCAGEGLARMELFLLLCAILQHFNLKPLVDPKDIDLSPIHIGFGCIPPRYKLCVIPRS

For `CCNCCCNC/C=C\CNCCCNCC.Cl.Cl.Cl.Cl` [SL-11047, N′-bis (3-ethylaminopropyl)-cis-but-2-ene-1,4-diamine tetrahydrochloride], the “effect on proliferating macrophages” value in data set [1] was “potent effect of inhibition”.

Regarding “b-endorphin: group of protein with potent analgesic properties that occur naturally in the brain (YGGFMTSEKSQTPLVTLFKNAIIKNAYKKGE; Beta-endorphin; UniProt P01189 237-267, looked up)”, the “increase of activity of nk cells” value in the data set with nk cells is listed as 30.5%. In addition, in the data set with lymphocytes, the “proliferative response of lymphocytes” value is recorded as “increases”.

Take `COc1cc(CNC(=O)CCCCCCC(C)C)ccc1O` [dihydroCapsaicin, 8-methylnonanoic acid vanillylamide]: the activity entry with Candida albicans, in the data set on Salmonella typhimurium, in the data set with Staphylococcus aureus and in the data set on Escherichia coli was “did not show activity” each time. Besides, the “effect on growth / activity” value with Bacillus subtilis, in the data set on Clostridium sporogenes, in the data set with Streptococcus pyogenes and in the data set with Bacillus cereus was “did not show activity” in each case.

Take `CCO` [ethanol]: in the data set on human (0.5 fluid ounces (about 15 ml) in a 150 pound human), the blood alcohol concentration is reported as 0.02%. Further, in the data set on human (in vivo), the “blood alcohol concentration that starts to produce measurable mental impairment” value is given as 0.05% and the “fraction processed by the liver” value is “over 90%”.

Turning to “polyoxyethylene sorbitan monooleate [tw80]”, the signs of toxicity entry in the data set on Sprague-Dawley cd rats is given as “no dose-related signs of toxicity”.

On to “kallidin: neuropeptide provoking histamine release (KRPPGFSPFR; Lysyl-bradykinin; UniProt P01042 380-389, looked up)”, for which the “power in provoking histamine release, compared with substance p and polisteskinin” value in the data set on masT cells was “Less powerful”.

`CCNCCCNC[C@@H]1C[C@H]1CNCCCNCC.Cl.Cl.Cl.Cl` (relative stereo) [SL-11044, N-ethyl-N′-(2-(3′-ethylamino-propylaminomethyl)-trans-cyclopropylmethyl)-propane 1,3-diamine tetrahydrochloride]: in data set [1], the “effect on proliferating macrophages” value is recorded as “potent effect of inhibition”.

Take `C=CCc1ccc(O)c(OC)c1` [eugenol]: the “concentration required to completely inhibit reactive oxygen species, compared with Capsaicin” value in the data set on macrophages was “Higher concentrations”.

Turning to `CCNCCCCNCCCCNCCCCNCCCCNCC` [BE-4444, 1,19-bis(ethylamino)-5,10,15-triazanonadecane], the “effect on proliferating macrophages” value in [1] was “potent effect of inhibition”.

As for `CN1[C@@H]2CC[C@H]1C[C@@H](OC(=O)C(CO)c1ccccc1)C2` (some centres unmarked) [atropine], the “counteraction of the effect of Capsaicin” value in the data set with rats [2] (rat, in vivo) is on record as “able to counteract the effect of Capsaicin”.

In the case of `CCNCCCNCCCNCCCNCC` [Denop, diethylnospermine], the “effect on proliferating macrophages” value in [1] is “potent effect of inhibition”.

For the molecule `CCNCCCNC[C@@H]1C[C@@H]1CNCCCNCC.Cl.Cl.Cl.Cl` [SL-11037, n-ethyl-n′-(2-(3′-ethylamino-propylaminomethyl)-cis-cyclopropylmethyl)-propane 1,3-diamine tetrahydrochloride], the “effect on proliferating macrophages” value in data set [1] is reported as “potent effect of inhibition”.

Take `CCNCCCNC/C=C/CNCCCNCC` [SL-11048]: the “effect on proliferating macrophages” value in data set [1] was “potent effect of inhibition”.

With methionyl-lysyl-bradykinin, the “power in provoking histamine release, compared with substance p and polisteskinin” value in the data set with masT cells is given as “Less powerful”.

Broadly, the LD50 is the dose at which mortality reaches 50%. For the molecule `COc1cc(CNC(=O)CCCC/C=C/C(C)C)ccc1O` [Capsaicin, 8-methyl-n-vanillyl-6-nonenamide], the activity entry with Candida albicans, in the data set with Salmonella typhimurium, in the data set on Staphylococcus aureus and with Escherichia coli was “did not show activity” throughout. For the same molecule, the “time for area of hyperalgesia to reach a maximum” value with humans (10 mcg intradermal) is at most 5 min; in the data set with humans (100 mcg intradermal), at most 7 min. Further, the “time to disappearance of hyperalgesia” value is on record as at most 15 min in the data set on humans (10 mcg intradermal) and at most 137 min with humans (100 mcg intradermal). Further, the “concentration giving perceptible warmth on tongue” value with tongue (1 ppm) was 1 µg/mL. For the same molecule, the “concentration giving persistent burning on tongue” value with tongue (10 ppm) was 10 µg/mL. Moreover, the “effect upon the substance p(sp) at intestinal level” value in the data set on substance p(sp) is “did not have effect”. Moreover, the “Bezold-Jarisch reflex after pretreatment” value in the data set on rats [3] was “significant inhibition of the Bezold-Jarisch reflex”. The “effect on growth / activity” value in the data set on Bacillus subtilis, with Clostridium sporogenes, in the data set on Streptococcus pyogenes and in the data set with Bacillus cereus was “did not show activity” in each case. The intestinal glucose absorption result in data set [4] was “inhibitory effect”. For the same molecule, the “dose at which acid secretory response reached a maximum” value with rats [5] was 1 mg/kg. For the same molecule, the “production of anions superoxides, peroxide of hydrogen and nitrites by macrophages” value in the data set on macrophages (10 mcm) is listed as “completely inhibited”. For the same molecule, the “growth (cancer)” value with cancer is given as “inhibit growth at low concentration”. The “effect of iv. dose” value with dogs [6] was “apnea, bradycardia, hypotension”; in the data set on cats (200 mcg/kg iv. in cats), “bradycardia, apnea”; in the data set with cats (400 mcg/kg iv. in cats), “higher post-hypotension and a second period of apnea”. In data set [7], the “activity of enzyme cyp2e1” value was “capable to inhibit”. Further, the “effect on tobacco specific carcinogen nnk” value in data set [8] is recorded as “inhibited”. The “time after which recovery of the desensitization is not complete” value in data set [9] is reported as over 60 days. For the same molecule, in the data set on b-endorphin, the “b-endorphin concentration in the hypothalamus” value is reported as “decreased”. The respiratory effect entry with dogs [10] (administration rate 10-20 mcg/kg/min, dogs) is given as “fast superficial respiration, but without apnea”; in the data set with dogs [10] (injected 0.5-20 mcg/kg, dogs anesthetised with chloralose), “apnea, followed by a fast superficial respiration”. In addition, the “GLINSUKON EXP (LD50)” value in the data set with mice (ig. adm, mice) was 67 mg/kg; with mice (iv. adm, mice) it was 0.5 mg/kg; with mice (sc. adm, mice) it was 8.5 mg/kg. The “GLINSUKON EXP (LD50), value in brackets” value in the data set on mice (ig. adm, mice, second value in brackets) is 190 mg/kg. For the same molecule, the LD50 in the data set on mice (iv., male mice) is on record as 0.56 mg/kg. Also, in the data set with mice (sc., im., and intraperitoneal (ip.), mice), the “toxicity effect measured by LD50 compared between routes” value was “similar”. For the same molecule, the mortality result in the data set on herpes simplex was “reduced mortality”. The “histamine and 5-hydroxitryptamine” value in data set [11] is reported as “increment”. Further, the “blood pressure and heart rate after pretreatment” value in the data set on rats [2] (1 mcg injected, rats) is “normal blood pressure and rate of the heart”; with rats [2] (50 mcg slow infusion over 12 mins), “normal blood pressure and rate of the heart”. Also, the “effect of iv. dose on blood pressure and heart rate” value in the data set with rats [2] (1 mcg or 3 mcg/kg iv. in rats) is “reproduced three phases”. Further, the letal dose with rats [12] is 0.5 mg/kg. The blood pressure result with cats and dogs is given as “fast fallen in blood pressure”. Besides, the “drop of the pulse, first value” in the data set on cats and dogs was 108 min⁻¹. For the same molecule, the “drop of the pulse, second value” in the data set on cats and dogs was 24 min⁻¹. For the same molecule, the subsequent tachycardia with cats and dogs is 160 min⁻¹. In the data set with cats (200 mcg/kg iv. in cats), the tension reduction is 46 mmhg.

Consider `CCNCCCNC[C@@H]1CC[C@H]1CNCCCNCC.Cl.Cl.Cl.Cl` (relative stereo) [SL-11038, N-ethyl-N′-(2-(3′-ethylamino-propylaminomethyl)-trans-cyclobutylmethyl)-propane 1,3-diamine tetrahydrochloride], for which, in [1], the “effect on proliferating macrophages” value is reported as “potent effect of inhibition”.
